Test results: publication PMC11219871, “Epigenetic-based differentiation therapy for Acute Myeloid Leukemia” (Nature Communications, 2024)
“And” between values parts separate entries of the source, which are not always exact repeats. Equal values may be shown once. Read-outs that look alike come from different tables or passages of the source.

Assays:
Type in all cases: cell-based, human
ML-2 [1] = assay: Differentiation-apoptosis assay, CD11b / annexin-V / Sytox Green / myeloid markers flow cytometry; parameters: Cell viability: concentration or dose not given beside the values; CD11b levels: unit not given here
Procedure: (§1) Next, the cells were washed twice with phosphate-buffered saline (PBS) and resuspended in 1X Binding Buffer at a concentration of 1 × 10^6 cells/mL. An 8-µL aliquot of APC-CD11b (BD Pharmingen, Franklin Lakes, NJ, USA) and 1 µL of FITC annexin-V (AV) (BD Pharmingen, Franklin Lakes, NJ, USA) antibodies were added and incubated for 15 min at room temperature in the dark. Finally, after the addition of 400 µL of 1X Binding Buffer to each tube, samples were collected on a BD FACSCanto flow cytometer (Becton Dickinson, San Jose, CA, USA) and analyzed using FlowJo software.
(§2) For the rest of experiments, the mix of antibodies (2 µL of BV786-CD13, Cat No, 744748 BD; 1 µL of diluted 1:10 antibody of PB-HLADR, Cat No 307633, Biolegend; 5 µL of APCH7-CD14, Cat No 641394, BD) was added to 10 µL of Brilliant Stain Buffer Plus (Becton Dickinson, San Jose, CA, USA). Then, 1 million cells (volume of 250 µL) were added and incubated for 30 min at room temperature in darkness. After 10 min incubation at room temperature with 2 mL of FACSLysing 1X, cells were centrifuged at 540 g for 5 min and washed twice with FACSBuffer. Finally, after centrifugation at 540 g for 5 min cells were resuspended in FACSBuffer.

HL-60 [2] = assay: as above; parameters: Cell viability (%): concentration or dose not given beside the values; CD11b levels: unit not given here
Procedure: Next, the cells were washed twice with phosphate-buffered saline (PBS) and resuspended in 1X Binding Buffer at a concentration of 1 × 10^6 cells/mL. […] Finally, after the addition of 400 µL of 1X Binding Buffer to each tube, samples were collected on a BD FACSCanto flow cytometer (Becton Dickinson, San Jose, CA, USA) and analyzed using FlowJo software.
Then, 1 million cells (volume of 250 µL) were added and incubated for 30 min at room temperature in darkness. After 10 min incubation at room temperature with 2 mL of FACSLysing 1X, cells were centrifuged at 540 g for 5 min and washed twice with FACSBuffer. Finally, after centrifugation at 540 g for 5 min cells were resuspended in FACSBuffer.

MOLM-13 [3] = assay: as above; parameters: Cell viability (%): concentration or dose not given beside the values; CD11b levels: unit not given here
Procedure: as §1, §2

MV4-11 [4] = assay: as above; parameters: Cell viability (%): concentration or dose not given beside the values; CD11b levels: unit not given here
Procedure: as §1, §2

ML-2 [5] = assay: Cell proliferation assay: GI50
Procedure: (§3) Cell proliferation was analyzed using the CellTiter 96 Aqueous One Solution Cell Proliferation Assay (Promega, Madison, WI). This is a colorimetric method for determining the number of viable cells in proliferation. For the assay, suspension cells were cultured in triplicate at a density of 1 × 10^6 cells/mL in 96-well plates (100.000 cells/well, 100 µL/well), using only the 60 inner wells to avoid any border effects. […] Then, the cells were incubated with 100 μL/well of medium and 20 μL/well of CellTiter 96 Aqueous One Solution reagent for 1–3 h. […] The background absorbance was measured in wells with only cell line medium and solution reagent. First, the average of the absorbance from the control wells was subtracted from all other absorbance values. Data were calculated as the percentage of total absorbance of treated cells/absorbance of non-treated cells. The GI50 values of the different compounds were determined using non-linear regression plots made with GraphPad Prism v5 software.

MOLM-13 [6] = assay: Cell proliferation assay: GI50
Procedure: as §3

MV4-11 [7] = assay: Cell proliferation assay: GI50
Procedure: as §3

HL-60 [8] = assay: Cell proliferation assay: GI50; conditions: read-out: GI50
Procedure: as §3

ML-2 [9] = assay: q-RT-PCR of MYC, CDKN2A, CDKN1A, GATA2, TAL1, CEBPA, SPI1; conditions: ML-2 treated daily for 48 h; replicates (Fig 6G)
Procedure: (§4) RNA was extracted with TRIzol Reagent (Invitrogen) according to the manufacturer’s instructions. First, cDNA was synthesized from 1 µg of total RNA using the PrimeScript RT reagent Kit (Perfect Real Time) (Cat No RR037A, TaKaRa) following the manufacturer’s instructions. The quality of cDNA was checked by a multiplex PCR that amplifies PBGD, ABL, BCR and β2-MG genes. […] The following program conditions were used for the q-PCR: 50 °C for 2 min, 95 °C for 60 s following by 45 cycles at 95 °C for 15 s and 60 °C for 60 s; melting program, one cycle at 95 °C for 15 s, 40 °C for 60 s, and 95 °C for 15 s. The relative expression of each gene was quantified by the […] method using the gene GUS as an endogenous control. The sequence of primers used can be found in Supplementary Table 10.

MOLM-13 [10] = assay: as above; conditions: MOLM-13, daily treatment for 48 h, replicates 1-3
Procedure: as §4

MV4-11 [11] = assay: as above; conditions: MV4-11, daily treatment for 48 h, replicates 1-3
Procedure: as §4

HL-60 [12] = assay: as above; conditions: HL-60 treated daily for 48 h; replicates (Fig 6F)
Procedure: as §4

[13] = ML-2, replicates 1-3, µM for the other inhibitors
[14] = MOLM-13, replicates 1-3, µM for the other inhibitors
[15] = MV4-11, replicates 1-3, µM for the other inhibitors
[16] = HL-60, replicates 1-3, µM for the other inhibitors
[17] = ML-2, 48 h, replicates (Fig 4A)
[18] = HL-60, 48 h treatment, replicates 1-3 (Suppl. Fig. 5A)
[19] = MOLM-13, 48 h treatment, replicates 1-3 (Suppl. Fig. 5A)
[20] = MV4-11, 48 h treatment, replicates 1-3 (Suppl. Fig. 5A)

For Cc1sc2c(c1C)C(c1ccc(Cl)cc1)=N[C@@H](CC(=O)OC(C)(C)C)c1nnc(C)n1-2 [JQ1, reference compound], the CD11b levels (ML-2 [1]; ML-2 treated daily for 48 h, replicates (Fig 6E)) was 12.1 and 9.5 and 15.4, the CD11b levels (HL-60 [2]; HL-60 treated daily for 48 h, replicates (Fig 6D)) was 14.4 and 10.4 and 18.9 and the CD11b levels (MOLM-13 [3]; MOLM-13, daily treatment for 48 h, replicates 1-3 (Suppl. Fig. 9A)) was 22.1 and 20.7 and 18.1. For the same molecule, the CD11b levels (MV4-11 [4]; MV4-11, daily treatment for 48 h, replicates 1-3 (Suppl. Fig. 9A)) was 12.1 and 10.6 and 16.7, the GI50 (ML-2 [5]; ML-2, 48 h) was over 10 µM and the GI50 (ML-2 [5]; [13]) was over 10 µM. For the same molecule, the GI50 (MOLM-13 [6]; MOLM-13, 48 h) was over 10 µM, the GI50 (MOLM-13 [6]; [14]) was over 10 µM and the GI50 (MV4-11 [7]; MV4-11, 48 h) was over 10 µM. The GI50 (MV4-11 [7]; [15]) was over 10 µM, the GI50 (HL-60 [8]; HL-60, 48 h) was over 10 µM and the GI50 (HL-60 [8]; [16]) was over 10 µM. The “q-PCR of CEBPA” value (ML-2 [9]) was 0.003145 log10 (2-ΔΔCt) and -0.05186 log10 (2-ΔΔCt) and 0.00217 log10 (2-ΔΔCt), the “q-PCR of GATA2” value (ML-2 [9]) was -0.7948 log10 (2-ΔΔCt) and -0.4733 log10 (2-ΔΔCt) and -0.5146 log10 (2-ΔΔCt) and the “q-PCR of MYC” value (ML-2 [9]) was -1.0744 log10 (2-ΔΔCt) and -1.048 log10 (2-ΔΔCt) and -1.0236 log10 (2-ΔΔCt). For the same molecule, the “q-PCR of SPI1” value (ML-2 [9]) was -0.3978 log10 (2-ΔΔCt) and -0.4936 log10 (2-ΔΔCt) and -0.3253 log10 (2-ΔΔCt), the “q-PCR of TAL1” value (ML-2 [9]) was -0.9571 log10 (2-ΔΔCt) and -0.8702 log10 (2-ΔΔCt) and -0.7161 log10 (2-ΔΔCt) and the “q-PCR of CEBPA, log10 (2-ΔΔCt)” value (MOLM-13 [10]) was -0.258 and -0.1482 and -0.3669. The “q-PCR of GATA2, log10 (2-ΔΔCt)” value (MOLM-13 [10]) was -0.2598 and -0.4259 and -0.3898, the “q-PCR of MYC, log10 (2-ΔΔCt)” value (MOLM-13 [10]) was -0.7137 and -0.6985 and -0.8216 and the “q-PCR of SPI1, log10 (2-ΔΔCt)” value (MOLM-13 [10]) was -0.9325 and -0.8224 and -0.9326. For the same molecule, the “q-PCR of TAL1, log10 (2-ΔΔCt)” value (MOLM-13 [10]) was -0.4726 and -0.5813 and -0.6816, the “q-PCR of CEBPA, log10 (2-ΔΔCt)” value (MV4-11 [11]) was 0.0684 and 0.023 and -0.05782 and the “q-PCR of GATA2, log10 (2-ΔΔCt)” value (MV4-11 [11]) was -0.3858 and -0.3755 and -0.4115. The “q-PCR of MYC, log10 (2-ΔΔCt)” value (MV4-11 [11]) was -0.6192 and -0.5693 and -0.4576, the “q-PCR of SPI1, log10 (2-ΔΔCt)” value (MV4-11 [11]) was -0.1789 and -0.2041 and -0.25 and the “q-PCR of TAL1, log10 (2-ΔΔCt)” value (MV4-11 [11]) was -1.126 and -0.6585 and -1.208. For the same molecule, the “q-PCR of CEBPA” value (HL-60 [12]) was -0.3248 log10 (2-ΔΔCt) and -0.277 log10 (2-ΔΔCt) and -0.3773 log10 (2-ΔΔCt), the “q-PCR of GATA2” value (HL-60 [12]) was -0.4169 log10 (2-ΔΔCt) and -0.4604 log10 (2-ΔΔCt) and -0.5063 log10 (2-ΔΔCt) and the “q-PCR of MYC” value (HL-60 [12]) was -1.0533 log10 (2-ΔΔCt) and -1.072 log10 (2-ΔΔCt) and -1.203 log10 (2-ΔΔCt). The “q-PCR of SPI1” value (HL-60 [12]) was 0.1686 log10 (2-ΔΔCt) and 0.1558 log10 (2-ΔΔCt) and 0.1908 log10 (2-ΔΔCt) and the “q-PCR of TAL1” value (HL-60 [12]) was 0.3073 log10 (2-ΔΔCt).
For Nc1ccccc1NC(=O)c1ccc(CNC(=O)OCc2cccnc2)cc1 [Entinostat, reference compound], the CD11b (ML-2 [1]; [17]) was 25.1% and 39.8% and 36.7%, the Cell viability (ML-2 [1]; [17]) was 59.1% and 65.7% and 58.8% and the “CD11b (%)” value (HL-60 [2]; [18]) was 32.6% and 37.2% and 30.1%. The “Cell viability (%)” value (HL-60 [2]; [18]) was 38.4% and 38.5% and 40.7%, the “CD11b (%)” value (MOLM-13 [3]; [19]) was 76.1% and 83.2% and 84.3% and the “Cell viability (%)” value (MOLM-13 [3]; [19]) was 47.7% and 56.4% and 56.1%. The “CD11b (%)” value (MV4-11 [4]; [20]) was 41.0% and 45.6% and 43.2%, the “Cell viability (%)” value (MV4-11 [4]; [20]) was 35.1% and 39.2% and 39.7% and the GI50 (ML-2 [5]; Homo sapiens, ML-2, 48 h) was 9.1 µM. For the same molecule, the GI50 (ML-2 [5]; Homo sapiens, ML-2, ML-2, replicates 1-3, µM for the other inhibitors) was 6.6 µM, the GI50 (ML-2 [5]; [13]) was 10.9 µM and 9.8 µM and the GI50 (MOLM-13 [6]; Homo sapiens, MOLM-13, 48 h) was 2.4 µM. For the same molecule, the GI50 (MOLM-13 [6]; Homo sapiens, MOLM-13, MOLM-13, replicates 1-3, µM for the other inhibitors) was 2.6 µM, the GI50 (MOLM-13 [6]; [14]) was 2 µM and the GI50 (MV4-11 [7]; Homo sapiens, MV4-11, MV4-11, replicates 1-3, µM for the other inhibitors) was 3.3 µM. For the same molecule, the GI50 (MV4-11 [7]; [15]) was 2.8 µM and 3 µM, the GI50 (HL-60 [8]; [16]) was 8.3 µM and 7.3 µM and the GI50 (HL-60 [8]; Homo sapiens, HL-60, HL-60, replicates 1-3, µM for the other inhibitors) was 7.8 µM.
